# Measurements taken from patent US11384071B2, “Inhibitors of mechanotransduction to treat pain and modulate touch perception” (Max-Delbrück-Centrum für Molekulare Medizin in der …, priority 2016, dated 2022).
# Assays:
# [1] = test system: 79 receptors and ion channels; test: Commercial in vitro pharmacology panel (cerep); assay type: binding; conditions: 20 μM, panel of 79 receptors and ion channels
# Description: We next interrogated whether local application of OB-1 can ameliorate tactile-evoked pain behavior in neuropathic models. […] We decided to test this idea more directly by testing the effects of local OB-1 on the mechanical sensitivity of Stoml3^−/− mice with CCI. […] Off-target effects are an issue for any biologically active small molecule. We therefore tested the effects of 20 μM OB-1 in a commercially available in vitro pharmacology panel (www.cerep.fr) consisting of 79 receptors and ion channels.
# [2] = test system: cutaneous sensory afferents of the saphenous nerve; test: Ex vivo skin-nerve preparation after local injection into the paw; assay type: in vivo, mouse
# Description: Mice were killed by CO2 inhalation for 2-4 min followed by cervical dislocation. The saphenous nerve and the shaved skin of the hind limb were dissected free and placed in an organ bath. The chamber was perfused with a synthetic interstitial fluid (SIF buffer) the composition of which was (in mM): NaCl, 123; KCl, 3.5; MgSO4, 0.7; NaH2PO4, 1.7; CaCl2), 2.0; sodium gluconate, 9.5; glucose, 5.5; sucrose, 7.5; and HEPES, 10 at a pH of 7.4. The skin was placed with the corium side up in the organ bath. The nerve was placed in an adjacent chamber on a mirror to aid fiber teasing under a stereomicroscope. Fine filaments were teased from the saphenous nerve and placed on the recording electrode.
# For the electrical search protocol a micro electrode (1 MΩ) was gently maneuvered to contact the epineurium of the nerve trunk and an electrical stimulation was delivered at a one second interval with square wave pulses of […] duration. […] The electrical nerve stimulation was done at 2 distant sites of the saphenous nerve to trace electrically identified units to their receptive fields. Mechanical sensitivity of single units was tested by mechanical stimulation with a glass rod. For the mechanical search protocol, single units were identified by gentle mechanical stimulation of their receptive field with a glass rod. Mechanically-evoked spikes were visualized and the template saved in an oscilloscope. Then, a sharp tungsten metal electrode was placed in the receptive field and an electrically evoked spike was elicited with suprathreshold current pulses and the electrical latency, the time from the stimulation artifact to spike, was recorded. The distance between the stimulating and recording electrode was designated as the conduction distance. For each isolated fiber the conduction velocity was calculated by dividing conduction distance over electrical latency for the spike.
# A computer-controlled nanomotor (Kleindiek, Reutlingen, Germany) was used to apply controlled displacement stimuli of known amplitude and velocity. The probe was a stainless steel metal rod and the diameter of the flat circular contact area was 0.8 mm containing a force transducer (Kleindiek, Reutlingen, Germany). The signal driving the movement of the linear motor and raw electrophysiological data were collected with a Powerlab 4.0 system (ADInstruments) and spikes were discriminated off-line with the spike histogram extension of the software.
# We made subcutaneous injections of the OB-1 compound (250-500 pmol per paw) into the hairy skin of the mouse lateral foot innervated by the saphenous nerve and recorded from sensory afferents 3 h later using an ex vivo skin—nerve preparation^5,25.
# [3] = test system: dissociated mouse DRG neurons; test: Action potential properties and electrical excitability of dissociated DRG neurons; assay type: cell-based
# Description: Whole-cell, patch-clamp recordings were conducted as previously described 5-7, using patch pipettes with a tip resistance of 3-6 MΩ, filled with a solution of: 110 mM KCl, 10 mM NaCl, 1 mM MgCl2, 1 mM EGTA and 10 mM HEPES, adjusted to pH 7.3 with KOH. (For experiments on DRG neurons 10 mM QX-314 was added to the pipette to block voltage-gated sodium channels 8 Extracellular solutions contained 140 mM NaCl, 4 mM KCl, 2 mM CaCl2, 1 mM MgCl2, 4 mM glucose, 10 mM HEPES, adjusted to pH 7.4 with NaOH. A Zeiss 200 inverted microscope and an EPC-10 amplifier in combination with Patchmaster software was used, data was analyzed using Fitmaster software (HEKA Electronik GmbH, Germany). Pipette and membrane capacitance were compensated using the auto function of Patchmaster, series resistance was compensated by at least 60% to minimize voltage errors. Mechanical stimuli were applied using a polished glass probe driven by the MM3A micromanipulator (Kleindiek Nanotechnik, Germany). Mechanical stimuli were applied by either; indenting the cell soma or by culturing cells on elastomeric pillar arrays and applying the stimulus to the cell-substrate interface by deflecting an individual pilus.
# Briefly, elastomeric pillar arrays of defined dimensions were cast in PDMS with an elasticity of 2 MPa. Cells cultured on these arrays were monitored using whole-cell patch-clamp whilst a glass probe was used to apply repeated deflections (of differing magnitudes) to an individual pilus directly beneath the cell. Images were obtained of the pilus before and after deflection and images were analyzed off-line to determine the exact deflection for each data point. Images were obtained using a 40×LD objective and a CoolSNAP EZ CCD camera. Images were analyzed off-line using Igor software (WaveMetrics, USA). The collection of stimulus-response data using pillar arrays generates data sets with variation in both x and y. In order to effectively compare groups for each cell studied we binned response data by stimulus size in the following bins: 0-10, 10-50, 50-100, 100-250, 250-500, 500-1000. For each cell, current amplitudes within each bin were averaged and then bins averaged between cells—we then tested for significance by testing whether the current amplitude for a given stimulation range (i.e. bin) differed between samples. A power analysis was used to determine that moderate to strong effects between samples could be detected with a sample size >4. […] To distinguish mechanoreceptors from nociceptors in the mixed population of acutely prepared DRG neurons, the shape of the generated action potential (AP) was used. […] For quantitative analysis of mechanosensitivity we measured responses in the most sensitive sub-population of mechanoreceptors, previously defined as Typell mechanoreceptors (Poole et al., 2014).
# We evaluated the effects of OB-1 and OB-2 on mechanosensitive currents in acutely cultured mouse sensory neurons. Neurons were classified on the basis of their AP configuration as mechanoreceptors or nociceptors^2,21.
smiles,measurement,setting,value
"CCOC(=O)c1c(-c2ccccc2)oc2ccc(Oc3c([N+](=O)[O-])ncn3C)cc12 [OB-1, Ethyl 5-((1-methyl-4-nitro-1H-imidazol-5-yl)oxy)-2-phenylbenzofuran-3-carboxylate]",receptors with significant inhibition of specific ligand binding,[1],6/79
same,fibers for which no mechanosensitive receptive field could be found (printed Aβ-fibers),"[2]; 8/38 fibers vs 5% in controls, not significantly different",21%
same,Aβ-fibers lacking a mechanosensitive receptive field,"[2]; 3 h after 250-500 pmol per paw s.c., 19/44 fibers, vehicle less than 7%",over 40%
same,proportion of C-fibers that lack a mechanosensitive receptive field,[2]; 3 h after local treatment,no change
same,firing rates of C-mechanonociceptors (C-Ms) to suprathreshold mechanical stimuli,[2]; OB-1 treated skin,not significantly attenuated
same,"proportion of mechanoreceptor types and mechanosensitivity of remaining Aβ-fiber mechanoreceptors (RAMs, SAMs)",[2]; OB-1 treated skin vs controls,unchanged
same,mechanical threshold for activation of C-mechanoheat fibers,"[2]; OB-1 treated skin, vehicle 106.9±17.4 mN",196.5±35.6 mN
same,stimulus response function of C-MH fibers,"[2]; ascending displacements 32-1024 μm, vs vehicle",significantly less responsive
same,mechanosensitivity of A-mechanonociceptors (AM),[2]; displacements 32-1024 μm,no changes
same,proportion of Aβ-fibers insensitive to mechanical stimuli,[2]; female mice as in male mice,almost identical proportion
same,mean force thresholds for C-M fiber,[2]; vehicle vs OB-1,not different
same,AHP (after-hyperpolarization potential),[3]; Mechanoreceptors (n = 9),−62.3 ± 1.6 mV
same,APamp (action potential amplitude),[3]; Mechanoreceptors (n = 9),97.8 ± 4.9 mV
same,APtime (total duration of action potential),[3]; Mechanoreceptors (n = 9),11.90 ± 2.9 ms
same,Input R,[3]; Mechanoreceptors (n = 9),40.8 ± 6.7 MΩ
same,Threshold,[3]; Mechanoreceptors (n = 9),700.0 ± 305.9 pA
same,Tpeak (Time to action potential peak),[3]; Mechanoreceptors (n = 9),7.5 ± 2.0 ms
same,Trep (Time to repolarizing peak),[3]; Mechanoreceptors (n = 9),4.5 ± 1.7 ms
same,Vrest (Resting potential),[3]; Mechanoreceptors (n = 9),−56.6 ± 2.0 mV
same,AHP (after-hyperpolarization potential),[3]; Nociceptors (n = 12),−67.4 ± 1.3 mV
same,APamp (action potential amplitude),[3]; Nociceptors (n = 12),115.4 ± 4.0 mV
same,APtime (total duration of action potential),[3]; Nociceptors (n = 12),10.0 ± 1.5 ms
same,Input R,[3]; Nociceptors (n = 12),56.7 ± 5.2 MΩ
same,Threshold,[3]; Nociceptors (n = 12),1276.4 ± 256.0 pA
same,Tpeak (Time to action potential peak),[3]; Nociceptors (n = 12),5.0 ± 0.7 ms
same,Trep (Time to repolarizing peak),[3]; Nociceptors (n = 12),5.0 ± 1.1 ms
same,Vrest (Resting potential),[3]; Nociceptors (n = 12),−59.5 ± 1.2 mV
same,parameters indicative of electrical excitability,[3]; treated at least 3 h with 20 μM,no alteration
